Tests used:
[1] = test system: soybean event pDAB4472-1606; format: in vivo, Glycine max; conditions: 2,4-D dimethylamine salt 2240 g ae/ha applied at V3 and R2; adjusted mean
From the text: The agronomic characteristics of soybean event pDAB4472-1606 were compared to an isogenic non-transformed soybean line across diverse geographical locations during the 2009 growing season. Data were collected and analyzed for the following agronomic characteristics: • 1.) Stand count: The number of plants in a representative one meter section of each row was counted. Taking data at the VC-V2 growth stage; • 2.) Emergence: Calculated by dividing Stand count (above) by number of seeds planted in a one meter section; • 3.) Seedling Vigor at V1-V3: Vigor is an overall estimate of the health of the plant. […] Recorded in the number of days from planting date; • 8.) Stand count at R2: The number of plants in a representative one meter section of row were counted. Note taken at the R2 growth stage; • 9.) Overall visual crop injury, chlorosis and necrosis at 1 day after R2 chemical application; • 10.) Overall visual crop injury, chlorosis and necrosis at 7 days after R2 chemical application; • 11.) Overall visual crop injury, chlorosis and necrosis at 14 days after R2 chemical application. • 12.) Disease incidence (if any) at R6 growth stage: Recorded the percentage of plants affected by the disease. 0-100% scale; • 13.) Insect damage (if any) at R6 growth stage: Recorded the percentage of plant tissue in the plot damaged by insects. 0-100% scale; • 14.) Plant height at senescence: Recorded the average height of the plants in each plot. Measured plants from the soil surface to the tip after leaves had fallen. Recorded measurement in centimeters; • 15.) Days to maturity. Recorded when 95% of the pods in a plot had reached their dry down color and were at ˜15% moisture or less. Recorded in days from planting; • 16.) Lodging: Recorded lodging at harvest time. […] (All plants in a plot standing straight=1 and all plants in the plot flat=5); • 17.) Shattering: Recorded shattering at harvest time. Recorded as an estimate of number of pods shattered. […] Recorded seed weight and moisture. […]

[2] = test system: soybean event pDAB4472-1606; assay: Field expression level study with 2X spray rate of 2,4-D; format: in vivo, Glycine max; conditions: 2X spray rate (2,240 gm ae/ha of 2,4-D); at any point of the study
Procedure: Field expression level studies at various plant stages were performed on soybean event pDAB4472-1606 at pre V3, post V3, pre R2, and post R2. Expression values were similar for all the sprayed treatments as well as for the plots sprayed and unsprayed with 2,4-D herbicide. […] Average expression across all lineages in pre V3 plant stage was 200 ug/cm^2. After spraying 2,4-D the expression remained stable averaging […] across lineages. By the time the soybeans reached pre R2 the average expression had dropped slightly to an average of 250 ug/cm^2. After spraying 2,4-D the expression post R2 had remained at the previous average of 250 ug/cm^2.

## O=C(O)COc1ccc(Cl)cc1Cl [2,4-D, 2,4-dichlorophenoxyacetic acid]
[1]
  Overall crop injury 1 day after V3 spray: 0.3%
  Overall crop injury 7 days after V3 spray: 2.1%
  Overall crop injury 14 days after V3 spray: 3.3%
[2]
  Injury on the plants: no significant injury was observed

Reference: patent publication US8785728B2, “AAD-12 event 1606 and related transgenic soybean lines” (priority 2010, dated 2014)
